Experimental data published in patent US6521649B1 (priority 1995, dated 2003).
Counter-ions that a name gives are not always drawn.

Structure (SMILES) | melting point
CCc1nnsc1C(=O)O [compound 178, t-butylammonium 4-ethyl-1,2,3-thiadiazole-5-carboxylate] | 105 to 107 °C
CCc1nnsc1C(=O)O (as salt: sodium) [compound 176, sodium 4-ethyl-1,2,3-thiadiazole-5-carboxylate] | 250 °C (dec.)
